Results: patent publication US20230322723A1, “COMPOUNDS FOR SUPPRESSING EGFR MUTANT CANCER AND PHARMACEUTICAL USE THEREOF” (J2H BIOTECH INC., priority 2020, published 2023)

Experiments:
[1] = system: EGFR^del19+T790M+C797S; test: EGFR protein degradation test (Western blot) in Ba/F3 cells expressing mutant EGFR del19+T790M+C797S (DTC); type: cell-based; conditions: compounds at 0.1 μM and 1 μM, 24 hours, Western blot with EGFR antibody
Procedure, shortened: (§1)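 Ba/F3 cells expressing wild-type EGFR, del19+T790M+C797S or L858R+T790M+C797S EGFR were treated with compound at 0.1 μM and 1 μM for 24 h. Lysates (30 μg) were analysed by SDS-PAGE and EGFR Western blot, with bands quantified densitometrically.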

[2] = Pharmacokinetic evaluation after single oral administration to ICR mice; type: in vivo; conditions: mouse, ICR mice, single oral dose 5 mg/kg, plasma; for AUC(0-t): read-out: AUC0-24
Protocol: Pharmacokinetic tests for the compounds of the present invention were conducted as below. After a single oral administration of the compound of the present invention to ICR mice, the concentration of the compound over time was followed up and analyzed.
The compound of the present invention was suspended in 10% DMSO/90% (30% HPbCD aqueous solution) and orally administered to mice at a dose of 5 mg/kg. Blood was collected at a fixed time and plasma was separated. Drug analysis was performed using HPLC (XBridge column C18, Waters, mobile phase 0.1% formic acid:acetonitrile (30:70, %/%)) and MS/MS (ESI positive, MRM). Mouse blood plasma and each commercially available standard solution were mixed at a ratio of 9:1 to prepare and calibrate at concentrations of […] 5,000 ng/mL. In addition, the preparation of QC samples was prepared by mixing the mouse blood plasma and the standard solution for QC at a ratio of 9:1, and prepared to be concentrations of 100, 750 and 2,500 ng/mL. 100 μL of the plasma sample was transferred to a centrifugation tube, and 10 μL of the internal standard solution and 300 μL of methanol were added, followed by mixing for about 30 seconds for pretreatment. The tube was centrifuged at 3,000×g (4° C.) for about 5 minutes, and the supernatant was taken and transferred to an LC vial and injected into the instrument. Then, the concentration of the compound in mouse plasma was quantified by applying a previously validated assay. For pharmacokinetic parameters, the program WinNonlin 5.2 (Pharsight, USA) was used. AUC0-t, AUC0-∞, Cmax, Tmax, and t1/2 were calculated by Noncompartment modeling (best fit). The pharmacokinetic parameter results were expressed as the mean (Mean) and standard deviation (SD), and were statistically processed using the SPSS program (Statistical Package for the Social Sciences, 10.0K, USA).

[3] = target: T1, EGFR^L858R+T790M+C797S (Homo sapiens, UniProt P00533, C797S/L858R/T790M); test: EGFR protein degradation test (Western blot) in Ba/F3 cells expressing mutant EGFR L858R+T790M+C797S (LTC); type: cell-based; conditions: compounds at 0.1 μM and 1 μM, 24 hours, Western blot with EGFR antibody
T1 construct: expressed in transfected cells; host or cells: Ba/F3
T1 sequence (P00533 25-1210 T790M/C797S/L858R): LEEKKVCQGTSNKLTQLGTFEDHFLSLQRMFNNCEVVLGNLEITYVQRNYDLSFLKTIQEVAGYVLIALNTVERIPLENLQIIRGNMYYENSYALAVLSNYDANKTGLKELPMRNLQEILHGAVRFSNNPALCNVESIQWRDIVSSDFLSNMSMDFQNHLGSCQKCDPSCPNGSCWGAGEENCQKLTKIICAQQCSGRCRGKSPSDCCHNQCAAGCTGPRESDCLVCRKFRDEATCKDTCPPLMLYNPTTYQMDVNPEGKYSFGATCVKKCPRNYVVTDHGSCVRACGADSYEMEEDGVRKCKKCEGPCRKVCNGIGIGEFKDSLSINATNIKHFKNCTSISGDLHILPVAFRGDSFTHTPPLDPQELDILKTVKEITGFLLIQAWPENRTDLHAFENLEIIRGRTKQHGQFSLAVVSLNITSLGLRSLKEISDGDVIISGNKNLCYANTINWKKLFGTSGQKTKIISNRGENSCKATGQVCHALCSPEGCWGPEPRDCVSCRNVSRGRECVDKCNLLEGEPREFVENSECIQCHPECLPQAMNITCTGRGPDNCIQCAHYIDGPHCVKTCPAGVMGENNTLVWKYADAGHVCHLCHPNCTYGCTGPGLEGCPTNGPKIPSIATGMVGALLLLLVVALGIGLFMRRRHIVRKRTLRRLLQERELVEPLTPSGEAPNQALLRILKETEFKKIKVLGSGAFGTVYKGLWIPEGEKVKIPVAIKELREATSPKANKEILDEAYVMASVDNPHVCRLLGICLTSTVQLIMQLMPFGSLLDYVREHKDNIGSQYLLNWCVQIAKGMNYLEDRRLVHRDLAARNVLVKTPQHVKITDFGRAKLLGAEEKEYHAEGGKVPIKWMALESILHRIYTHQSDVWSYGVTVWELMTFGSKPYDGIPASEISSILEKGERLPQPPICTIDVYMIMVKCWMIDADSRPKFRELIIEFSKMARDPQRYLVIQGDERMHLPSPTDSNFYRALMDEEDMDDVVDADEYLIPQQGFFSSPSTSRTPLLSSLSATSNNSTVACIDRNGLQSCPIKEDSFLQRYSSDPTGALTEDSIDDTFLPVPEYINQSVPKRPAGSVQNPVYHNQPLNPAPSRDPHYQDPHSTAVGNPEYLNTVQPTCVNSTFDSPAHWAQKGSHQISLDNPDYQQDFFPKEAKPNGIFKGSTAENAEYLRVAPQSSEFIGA
Procedure, shortened: as §1

half-life [2] [h] | AUC(0-t) [2] [ng·h/mL] | Compound | DTC (EGFR^del19+T790M+C797S) protein degradation [1] | LTC (EGFR^L858R+T790M+C797S) protein degradation [3]
8.89 | 68 | COc1cc(N2CCC(CN3CCN(CC(=O)N[C@H](C(=O)N4C[C@H](O)CC4C(=O)NCc4ccc(-c5scnc5C)cc4)C(C)(C)C)CC3)CC2)ccc1Nc1ncc(Cl)c(Nc2ccccc2N(C)S(C)(=O)=O)n1 (stereo in doubt) [Compound 27, (2R,4R)-1-((S)-2-(2-(4-((1-(4-((5-chloro-4-((2-(N-methylmethylsulfonamido)phenyl)amino)pyrimidin-2-yl)amino)-3-methoxyphenyl)piperidin-4-yl)methyl)piperazin-1-yl)acetamido)-3,3-dimethylbutanoyl)-4-hydroxy-N-(4-(4-methylthiazol-5-yl)benzyl)pyrrolidin-2-carboxamide] | ++ (Protein degradation > 80%) | ++ (Protein degradation > 80%)
6.23 | 1170 | COc1cc(N2CCN(CC3CCN(CC(=O)N[C@H](C(=O)N4C[C@H](O)CC4C(=O)NCc4ccc(-c5scnc5C)cc4)C(C)(C)C)CC3)CC2)ccc1Nc1ncc(Cl)c(Nc2ccccc2N(C)S(C)(=O)=O)n1 (stereo in doubt) [Compound 28, (2R,4R)-1-((S)-2-(2-(4-((4-(4-((5-chloro-4-((2-(N-methylmethylsulfonamido)phenyl)amino)pyrimidin-2-yl)amino)-3-methoxyphenyl)piperazin-1-yl)methyl)piperidin-1-yl)acetamido)-3,3-dimethylbutanoyl)-4-hydroxy-N-(4-(4-methylthiazol-5-yl)benzyl)pyrrolidin-2-carboxamide] | ++ (Protein degradation > 80%) | ++ (Protein degradation > 80%)
 |  | COc1cc(N2CCN(CC3CCN(CC4CCN(c5ccc6c(c5)C(=O)N(C5CCC(=O)NC5=O)C6=O)CC4)CC3)CC2)ccc1Nc1ncc(Cl)c(Nc2ccccc2N(C)S(C)(=O)=O)n1 (stereo not drawn) [Compound 59, N-(2-((5-chloro-2-((4-(4-((1-((1-(2-(2,6-dioxopiperidin-3-yl)-1,3-dioxoisoindolin-5-yl)piperidin-4-yl)methyl)piperidin-4-yl)methyl)piperazin-1-yl)-2-methoxyphenyl)amino)pyrimidin-4-yl)amino)phenyl)-N-methylmethanesulfonamide] | ++ (Protein degradation > 80%) | + (Protein degradation 20~80%)
 |  | COc1cc(N2CCC(N3CCN(CC4CN(c5ccc6c(c5)C(=O)N(C5CCC(=O)NC5=O)C6=O)C4)CC3)CC2)ccc1Nc1ncc(Cl)c(Nc2ccccc2N(C)S(C)(=O)=O)n1 (stereo not drawn) [Compound 60, N-(2-((5-chloro-2-((4-(4-(4-((1-(2-(2,6-dioxopiperidin-3-yl)-1,3-dioxoisoindolin-5-yl)azetidin-3-yl)methyl)piperazin-1-yl)piperidin-1-yl)-2-methoxyphenyl)amino)pyrimidin-4-yl)amino)phenyl)-N-methylmethanesulfonamide] | − (Protein degradation < 20%) | ++ (Protein degradation > 80%)
 |  | COc1cc(N2CCN(CC3CCN(CC4CN(c5ccc6c(c5)C(=O)N(C5CCC(=O)NC5=O)C6=O)C4)CC3)CC2)ccc1Nc1ncc(Cl)c(Nc2ccccc2N(C)S(C)(=O)=O)n1 (stereo not drawn) [Compound 61, N-(2-((5-chloro-2-((4-(4-((1-((1-(2-(2,6-dioxopiperidin-3-yl)-1,3-dioxoisoindolin-5-yl)azetidin-3-yl)methyl)piperidin-4-yl)methyl)piperazin-1-yl)-2-methoxyphenyl)amino)pyrimidin-4-yl)amino)phenyl)-N-methylmethanesulfonamide] | − (Protein degradation < 20%) | + (Protein degradation 20~80%)
 |  | COc1cc(N2CCC(CN3CCC(CNc4cccc5c4C(=O)N(C4CCC(=O)NC4=O)C5=O)CC3)CC2)ccc1Nc1ncc(Cl)c(Nc2ccccc2N(C)S(C)(=O)=O)n1 (stereo not drawn) [Compound 62, N-(2-((5-chloro-2-((4-(4-((4-(((2-(2,6-dioxopiperidin-3-yl)-1,3-dioxoisoindolin-4-yl)amino)methyl)piperidin-1-yl)methyl)piperidin-1-yl)-2-methoxyphenyl)amino)pyrimidin-4-yl)amino)phenyl)-N-methylmethanesulfonamide] | + (Protein degradation 20~80%) | ++ (Protein degradation > 80%)
 |  | COc1cc(N2CCC(CN3CCC(CNc4ccc5c(c4)C(=O)N(C4CCC(=O)NC4=O)C5=O)CC3)CC2)ccc1Nc1ncc(Cl)c(Nc2ccccc2N(C)S(C)(=O)=O)n1 (stereo not drawn) [Compound 63, N-(2-((5-chloro-2-((4-(4-((4-(((2-(2,6-dioxopiperidin-3-yl)-1,3-dioxoisoindolin-5-yl)amino)methyl)piperidin-1-yl)methyl)piperidin-1-yl)-2-methoxyphenyl)amino)pyrimidin-4-yl)amino)phenyl)-N-methylmethanesulfonamide] | + (Protein degradation 20~80%) | ++ (Protein degradation > 80%)
 |  | COc1cc(N2CCN(CC3CCN(C(=O)CCc4ccc5c(c4)C(=O)N(C4CCC(=O)NC4=O)C5=O)CC3)CC2)ccc1Nc1ncc(Cl)c(Nc2ccccc2N(C)S(C)(=O)=O)n1 (stereo not drawn) [Compound 64, N-(2-((5-chloro-2-((4-(4-((1-(3-(2-(2,6-dioxopiperidin-3-yl)-1,3-dioxoisoindolin-5-yl)propanoyl)piperidin-4-yl)methyl)piperazin-1-yl)-2-methoxyphenyl)amino)pyrimidin-4-yl)amino)phenyl)-N-methylmethanesulfonamide] | − (Protein degradation < 20%) | + (Protein degradation 20~80%)
 |  | COc1cc(N2CCN(CC3CCN(C(=O)CNc4ccc5c(c4)C(=O)N(C4CCC(=O)NC4=O)C5=O)CC3)CC2)ccc1Nc1ncc(Cl)c(Nc2ccccc2N(C)S(C)(=O)=O)n1 (stereo not drawn) [Compound 66, N-(2-((5-chloro-2-((4-(4-((1-((2-(2,6-dioxopiperidin-3-yl)-1,3-dioxoisoindolin-5-yl)glycyl)piperidin-4-yl)methyl)piperazin-1-yl)-2-methoxyphenyl)amino)pyrimidin-4-yl)amino)phenyl)-N-methylmethanesulfonamide] | ++ (Protein degradation > 80%) | ++ (Protein degradation > 80%)
 |  | COc1cc(N2CCC(CN3CCN(c4ccc5c(c4)C(=O)N(C4CCC(=O)NC4=O)C5=O)CC3)CC2)ccc1Nc1ncc(Cl)c(Nc2ccccc2N(C)S(C)(=O)=O)n1 (stereo not drawn) [Compound 67, N-(2-((5-chloro-2-((4-(4-((4-(2-(2,6-dioxopiperidin-3-yl)-1,3-dioxoisoindolin-5-yl)piperazin-1-yl)methyl)piperidin-1-yl)-2-methoxyphenyl)amino)pyrimidin-4-yl)amino)phenyl)-N-methylmethanesulfonamide] | − (Protein degradation < 20%) | ++ (Protein degradation > 80%)
 |  | COc1cc(N2CCN(CC3CCN(c4ccc5c(c4)C(=O)N(C4CCC(=O)NC4=O)C5=O)CC3)CC2)ccc1Nc1ncc(Cl)c(Nc2ccccc2N(C)S(C)(=O)=O)n1 (stereo not drawn) [Compound 68] | + (Protein degradation 20~80%) | ++ (Protein degradation > 80%)
 |  | COc1cc(N2CCC(N3CCN(CC#Cc4ccc5c(c4)C(=O)N(C4CCC(=O)NC4=O)C5=O)CC3)CC2)ccc1Nc1ncc(Cl)c(Nc2ccccc2N(C)S(C)(=O)=O)n1 (stereo not drawn) [Compound 72, N-(2-((5-chloro-2-((4-(4-(4-(3-(2-(2,6-dioxopiperidin-3-yl)-1,3-dioxoisoindolin-5-yl)prop-2-yn-1-yl)piperazin-1-yl)piperidin-1-yl)-2-methoxyphenyl)amino)pyrimidin-4-yl)amino)phenyl)-N-methylmethanesulfonamide] | − (Protein degradation < 20%) | − (Protein degradation < 20%)
 |  | COc1cc(N2CCN(CC#Cc3ccc4c(c3)C(=O)N(C3CCC(=O)NC3=O)C4=O)CC2)ccc1Nc1ncc(Cl)c(Nc2ccccc2N(C)S(C)(=O)=O)n1 (stereo not drawn) [Compound 73, N-(2-((5-chloro-2-((4-(4-(3-(2-(2,6-dioxopiperidin-3-yl)-1,3-dioxoisoindolin-5-yl)prop-2-yn-1-yl)piperazin-1-yl)-2-methoxyphenyl)amino)pyrimidin-4-yl)amino)phenyl)-N-methylmethanesulfonamide] | − (Protein degradation < 20%) | − (Protein degradation < 20%)
